Test results as given in patent US20040110265A1, “Recovery of enzyme activity from enveloped viruses” (priority 2001, published 2004).

How the values were obtained:
Assay type in all cases: biochemical
human plasma polymerase [1] = test: Resurrection of plasma polymerase activity after treatment with cysteine-modifying agents; conditions: for Polymerase activity after second incubation with indicated substance (% of control): no destroying agent in first incubation; for Conditions required to reactivate polymerase activity treated with the agent: 3 mM agent, then reactivating substances; for Polymerase activity after second incubation with DTT (% of control) / Polymerase activity after second incubation with MSA (% of control) / Polymerase activity after second incubation with cysteine (% of control) / Polymerase activity after second incubation with glutathione (% of control): 3 mM destroying agent first
Description: A set of human plasma samples (60% plasma in water) was first incubated with 3 mM of indicated cysteine-modifying substance or water (as control) at room temperature for 1 hour. Serial dilutions of five potentially reactivating substances were then added and the samples were incubated for another hour. Each sample was finally diluted 1:20 and residual RT activity was determined with Cavidi® HS kit Lenti RT. The total reduction in substance concentration between sample incubation and RT assay was 200 times. The RT activities recovered were recalculated into percent of the activity of a control consisting of plasma incubated in absence of additions during both incubation steps.

human plasma RT = test: Selective destruction of endogenous RT activity in plasma, protocol I; conditions: EDTA plasma with disrupted lymphocytes, 1 hour at room temperature
Description: EDTA plasma with disrupted lymphocytes from a healthy blood donor and FIV diluted in inactivated foetal calf serum (totally devoid of plasma RT activity) were incubated for 1 hour at room temperature with indicated concentration of: A) 5,5′-dithiobis-(2-nitrobensoic acid), B) thimerosal. The samples were separated according to “Protocol for determination of retroviral RT from material which contains RT blocking antibodies”. The RT activities recovered were determined with an RT assay (Cavidi HS-kit Lenti RT).

human plasma polymerase [2] = test: Elimination of plasma polymerase without purification (substance, then cysteamine); conditions: one hour at room temperature, then 20 mM cysteamine; no purification
Description: A) EDTA plasma from a healthy blood donor, B) FIV virus diluted in inactivated FCS (devoid of RT activity) or C) in Dulbeco minimal essential medium with 5% FCS were diluted 1:1 and incubated with indicated concentration of 5,5′-dithiobis-(2-nitrobensoic acid) for one hour at room temperature (20° C.). Each sample was then serially diluted in fourfold steps in conditioning buffer (B). Cysteamine to a final concentration of 20 mM was then added to all samples and the set was incubated for another hour at room temperature. The RT activity of each sample was then determined using Cavidi® HS kit Lenti RT. 15 μl of each sample was added to 135 μl reaction mixture giving a final cysteamine concentration in assay of 2 mM. The RT activity recovered at the three first dilutions corresponding to 7.5, 1.9 and 0.5 μl sample per RT assay was recalculated into percentage of a control incubated in absence of substance and plotted against the substance concentration, see FIG. 6.

recombinant HIV 1 RT = biological target: T1, recombinant HIV 1 RT (Human immunodeficiency virus type 1 group M subtype B, UniProt P04585); test: RT assay (Cavidi HS-kit Lenti RT) with added components, recombinant HIV 1 RT; conditions: 12 ng odT, 100% = no addition
T1 construct: recombinant HIV 1 RT or FIV RT of cell culture origin was used as enzyme
Description: (§1) The effect of addition of indicated components to RT reaction mixture devoid of primer (Cavidi HS-kit Lenti RT) was investigated. EDTA plasma from two healthy blood donors (1 μl/assay), recombinant HIV 1 RT or FIV RT of cell culture origin was used as enzyme.

[3] = tested on: unidentified RT activity from human plasma; test: RT assay (Cavidi HS-kit Lenti RT) with added components, human plasma polymerase; conditions: 12 ng odT, 100% = no addition
Description: as §1

[4] = tested on: FIV RT of cell culture origin; test: RT assay (Cavidi HS-kit Lenti RT) with added components, FIV RT; conditions: 12 ng odT, 100% = no addition
Description: as §1

[5] = 0.1 M final concentration in RT assay
[6] = 1 mM final concentration in RT assay
[7] = 2.5 10^-6 M final concentration in RT assay

SMILES: O[C@H](CS)[C@H](O)CS (racemic) [DTT, Dithiothreitol]
- Polymerase activity after second incubation with indicated substance (% of control) (human plasma polymerase [1]; 1.1 mM substance): 260%
- Polymerase activity after second incubation with indicated substance (% of control) (human plasma polymerase [1]; 3.3 mM substance): 613%
- Polymerase activity after second incubation with indicated substance (% of control) (human plasma polymerase [1]; 10 mM substance): 767%
- Polymerase activity after second incubation with indicated substance (% of control) (human plasma polymerase [1]; 30 mM substance): 860%

SMILES: O=C(O)c1cc(SSc2ccc([N+](=O)[O-])c(C(=O)O)c2)ccc1[N+](=O)[O-] [5,5′-Dithiobis-(2-nitrobenzoic acid)]
- Concentration that totally eliminated the human plasma RT activity (human plasma RT): above 0.4 mM
- Conditions required to reactivate polymerase activity treated with the agent (human plasma polymerase [1]): required strongly reductive low molecular weight thiols for activation
- Polymerase activity after second incubation with DTT (% of control) (human plasma polymerase [1]; 1.1 mM DTT): 0%
- Polymerase activity after second incubation with MSA (% of control) (human plasma polymerase [1]; 1.1 mM MSA): 0%
- Polymerase activity after second incubation with DTT (% of control) (human plasma polymerase [1]; 3.3 mM DTT): 1%
- Polymerase activity after second incubation with MSA (% of control) (human plasma polymerase [1]; 3.3 mM MSA): 0%
- Polymerase activity after second incubation with DTT (% of control) (human plasma polymerase [1]; 10 mM DTT): 143%
- Polymerase activity after second incubation with MSA (% of control) (human plasma polymerase [1]; 10 mM MSA): 0%
- Polymerase activity after second incubation with DTT (% of control) (human plasma polymerase [1]; 30 mM DTT): 122%
- Polymerase activity after second incubation with MSA (% of control) (human plasma polymerase [1]; 30 mM MSA): 0%
- Polymerase activity after second incubation with cysteine (% of control) (human plasma polymerase [1]; 30 mM cysteine): 7%
- Polymerase activity after second incubation with glutathione (% of control) (human plasma polymerase [1]; 30 mM glutathione): 2%
- Concentration after which human plasma polymerase activity was eliminated (human plasma polymerase [2]): above 0.47 mM

SMILES: Cc1ccc(S(=O)(=O)[N-]Cl)cc1.[Na+] [Chloramine T]
- Conditions required to reactivate polymerase activity treated with the agent (human plasma polymerase [1]): required strongly reductive low molecular weight thiols for activation
- Polymerase activity after second incubation with DTT (% of control) (human plasma polymerase [1]; 1.1 mM DTT): 2%
- Polymerase activity after second incubation with MSA (% of control) (human plasma polymerase [1]; 1.1 mM MSA): 6%
- Polymerase activity after second incubation with DTT (% of control) (human plasma polymerase [1]; 3.3 mM DTT): 51%
- Polymerase activity after second incubation with MSA (% of control) (human plasma polymerase [1]; 3.3 mM MSA): 0%
- Polymerase activity after second incubation with DTT (% of control) (human plasma polymerase [1]; 10 mM DTT): 80%
- Polymerase activity after second incubation with MSA (% of control) (human plasma polymerase [1]; 10 mM MSA): 1%
- Polymerase activity after second incubation with cysteine (% of control) (human plasma polymerase [1]; 10 mM cysteine): 4%
- Polymerase activity after second incubation with glutathione (% of control) (human plasma polymerase [1]; 10 mM glutathione): 3%
- Polymerase activity after second incubation with DTT (% of control) (human plasma polymerase [1]; 30 mM DTT): 94%
- Polymerase activity after second incubation with MSA (% of control) (human plasma polymerase [1]; 30 mM MSA): 0%
- Polymerase activity after second incubation with cysteine (% of control) (human plasma polymerase [1]; 30 mM cysteine): 9%

SMILES: [Cl-].[K+] [KCl]
- Activity of indicated enzyme in RT assay, HIV (recombinant HIV 1 RT; [5]): 87%
- Activity of indicated enzyme in RT assay, plasma 1 [3, 5]: 17%
- Activity of indicated enzyme in RT assay, plasma 2 [3, 5]: 20%
- Activity of indicated enzyme in RT assay, FIV [4, 5]: 110%

SMILES: O=C(O)CC(S)C(=O)O (centres unmarked) [MSA, Mercaptosuccinic acid]
- Polymerase activity after second incubation with indicated substance (% of control) (human plasma polymerase [1]; 1.1 mM substance): 109%
- Polymerase activity after second incubation with indicated substance (% of control) (human plasma polymerase [1]; 3.3 mM substance): 110%
- Polymerase activity after second incubation with indicated substance (% of control) (human plasma polymerase [1]; 10 mM substance): 64%
- Polymerase activity after second incubation with indicated substance (% of control) (human plasma polymerase [1]; 30 mM substance): 7%

SMILES: O=C([O-])P(=O)(O)O.O=C([O-])P(=O)(O)O.O=C([O-])P(=O)(O)O.[Na+].[Na+].[Na+] [PFA, trisodium phosophonoformate]
- Activity of indicated enzyme in RT assay, HIV (recombinant HIV 1 RT; [6]): 1%
- Activity of indicated enzyme in RT assay, plasma 1 [3, 6]: 92%
- Activity of indicated enzyme in RT assay, plasma 2 [3, 6]: 94%

SMILES: NCCS [cysteamine]
- Polymerase activity after second incubation with indicated substance (% of control) (human plasma polymerase [1]; 1.1 mM substance): 15%
- Polymerase activity after second incubation with indicated substance (% of control) (human plasma polymerase [1]; 3.3 mM substance): 9%
- Polymerase activity after second incubation with indicated substance (% of control) (human plasma polymerase [1]; 10 mM substance): 6%
- Polymerase activity after second incubation with indicated substance (% of control) (human plasma polymerase [1]; 30 mM substance): 6%

SMILES: N[C@@H](CS)C(=O)O [cysteine]
- Polymerase activity after second incubation with indicated substance (% of control) (human plasma polymerase [1]; 1.1 mM substance): 72%
- Polymerase activity after second incubation with indicated substance (% of control) (human plasma polymerase [1]; 3.3 mM substance): 82%
- Polymerase activity after second incubation with indicated substance (% of control) (human plasma polymerase [1]; 10 mM substance): 145%
- Polymerase activity after second incubation with indicated substance (% of control) (human plasma polymerase [1]; 30 mM substance): 198%

SMILES: Nc1ncnc2c1ncn2[C@H]1CC[C@@H](COP(=O)(O)OP(=O)(O)OP(=O)(O)O)O1 [ddATP]
- Activity of indicated enzyme in RT assay, HIV (recombinant HIV 1 RT; [7]): 90%
- Activity of indicated enzyme in RT assay, plasma 1 [3, 7]: 94%
- Activity of indicated enzyme in RT assay, plasma 2 [3, 7]: 105%
- Activity of indicated enzyme in RT assay, FIV [4, 7]: 79%

SMILES: Nc1ccn([C@H]2CC[C@@H](COP(=O)(O)OP(=O)(O)OP(=O)(O)O)O2)c(=O)n1 [ddCTP]
- Activity of indicated enzyme in RT assay, HIV (recombinant HIV 1 RT; [7]): 89%
- Activity of indicated enzyme in RT assay, plasma 1 [3, 7]: 94%
- Activity of indicated enzyme in RT assay, plasma 2 [3, 7]: 103%
- Activity of indicated enzyme in RT assay, FIV [4, 7]: 75%

SMILES: Nc1nc2c(ncn2[C@H]2CC[C@@H](COP(=O)(O)OP(=O)(O)OP(=O)(O)O)O2)c(=O)[nH]1 [ddGTP]
- Activity of indicated enzyme in RT assay, HIV (recombinant HIV 1 RT; [7]): 94%
- Activity of indicated enzyme in RT assay, plasma 1 [3, 7]: 103%
- Activity of indicated enzyme in RT assay, plasma 2 [3, 7]: 109%
- Activity of indicated enzyme in RT assay, FIV [4, 7]: 93%

SMILES: Cc1cn([C@H]2CC[C@@H](COP(=O)(O)OP(=O)(O)OP(=O)(O)O)O2)c(=O)[nH]c1=O [ddTTP]
- Activity of indicated enzyme in RT assay, HIV (recombinant HIV 1 RT; [7]): 18%
- Activity of indicated enzyme in RT assay, plasma 1 [3, 7]: 7%
- Activity of indicated enzyme in RT assay, plasma 2 [3, 7]: 9%
- Activity of indicated enzyme in RT assay, FIV [4, 7]: 28%

SMILES: N[C@@H](CCC(=O)N[C@@H](CS)C(=O)NCC(=O)O)C(=O)O [glutathione]
- Polymerase activity after second incubation with indicated substance (% of control) (human plasma polymerase [1]; 1.1 mM substance): 72%
- Polymerase activity after second incubation with indicated substance (% of control) (human plasma polymerase [1]; 3.3 mM substance): 78%
- Polymerase activity after second incubation with indicated substance (% of control) (human plasma polymerase [1]; 10 mM substance): 80%
- Polymerase activity after second incubation with indicated substance (% of control) (human plasma polymerase [1]; 30 mM substance): 13%
